Earlier results as cited in US11224220B2, “Surfactant composition based on glycine betaine amide salts, process for preparing same and uses thereof” (SURFACTGREEN, priority 2018, dated 2022).

Conditions: prior art values (U.S. Pat. No. 7,829,521; Green Chem., 2008, 10, 310-320; WO 2013/188508 Table 5)

Structure (SMILES) | surface tension [mN/m]
CCCCCCCCCCCCNC(=O)C[N+](C)(C)C [glycine betaine laurylamide] | 50
CCCCCCCCCCCCNC(=O)C[N+](C)(C)C [pure glycine betaine amide] | 38
